In patent publication US20240239765A1, “GLYCINE N-METHYLTRANSFERASE SPECIFIC ENHANCER AND PREPARATION METHOD AND USES THEREOF” (KAOHSIUNG MEDICAL UNIVERSITY, priority 2020, published 2024):
pIC50: −log10 of the molar value.

Assays:
p21 mRNA = p21 mRNA expression in Huh7 cells (qRT-PCR); assay type: cell-based, Human; details: after K117 treatment
Method: (§1) RNA was isolated by using Trizol reagent (Life Technologies) according to the manufacturer's protocol. Cellular RNA was reverse transcribed into complementary DNA using a SuperScript II RNase H-Reverse Transcriptase Kit (Life Technologies). PCR reactions were carried out using a Super Script II Reverse Transcriptase Kit (Invitrogen Inc., Carlsbad, CA, USA) on an Applied Biosystems Step-One-plus real-time PCR system (Applied Biosystems, Foster City, CA, USA). The mRNA level of TATA-box binding protein (TBP) was used as an internal control. The primer pairs used for qRT-PCR were: • TBP forward: SEQ ID NO: 1, • reverse: SEQ ID NO: 2, • MYC forward: SEQ ID NO: 3, • reverse: SEQ ID NO: 4, • p21 forward: SEQ ID NO: 5, • reverse: SEQ ID NO: 6, • p27 forward: SEQ ID NO: 7, • reverse: SEQ ID NO: 8, • GNMT forward: SEQ ID NO: 9, and • reverse: SEQ ID NO: 10.

PANC1 = test: Cell viability, pancreatic cancer cell line PANC1; assay type: cell-based; details: Homo sapiens, PANC-1; PANC1, pancreas
Method: (§2) Human liver cancer cell lines (Huh7 and HepG2), human pancreatic cancer cell line (PANC1) and prostate cancer cell line (PC3) were cultured in Dulbecco's modified Eagle's medium (DMEM) supplemented with 10% fetal bovine serum (FBS) (HyClone, Logan, UT, USA), L-glutamine (2 mM), streptomycin (100 μg/mL), penicillin (100 U/mL) and nonessential amino acids (0.1 mM). Human pancreatic cancer cell line BxPC3 was cultured in the medium of Roswell Park Memorial Institute (RPMI) 1640 with the same supplements as in DMEM. All cell lines were maintained at 37 °C in a humidified CO2 incubator. H7GPL stable cells established by lentiviral-system was grown in DMEM supplemented with 1 μg/mL puromycin. The sorafenib were purchased from Sigma-Aldrich (St Louis, MO, USA).
(§3) Huh7, HepG2, PANC1, PC3, and BxPC3 cells were seeded in 96-well plates for 24 hours and exposed to the drugs with various concentrations. AlamarBlue® was added in to the cells and further incubated for 4 hours to assess the cytotoxic effect of the tested drugs. Blank wells (without cells) containing the same amount of test substances were used for background subtraction, and the relative number of viable cells were represented as the percentage of the mean of the relative solvent controls. AlamarBlue® assay (AbD Serotec, Oxford, UK) was used to assess cell viability according to the manufacturer's instructions.

MYC protein = MYC protein in Huh7 xenograft tumors (immunoblotting); assay type: in vivo; details: Huh7 xenograft tumors of treated mice
Method: (§4) Cells or xenograft tumors were harvested for lysate preparation by using RIPA buffer containing protease inhibitor cocktail (Roche Molecular Biochemicals) and phosphatase inhibitors (10 mM Na3VO4, 1 mM NaF, 5 mM NaPPi). Protein concentrations were quantified by Bio-Rad Protein Assay (Bio-Rad) and immunoblotting was carried out as previous description (Yen et al., 2012). Anti-MYC (D84C12, Cell Signaling Technology), anti-GNMT (YMAC-Bioteck) and anti-β-actin (AC-15, Sigma-Aldrich) antibodies were used according to the descriptions in manufacturer's instructions.
All animal experiments were reviewed and approved by the Institutional Animal Care and Use Committee of Kaohsiung Medical University, and performed in accordance with relevant guidelines. Five to six-week-old male NOD-SCID mice were subcutaneously injected with Huh7 cells (1×10^6) in the right flank. Upon detection of palpable tumor, mice were randomly grouped and treated with 300 mpk, 100 mpk or 25 mpk of LKY4606D or KYT5397 and drug vehicle orally every day for 28 days. For K117, doses of 10 mpk and 25 mpk were used. For Sorafenib, dose of 25 mpk was used. Tumor growth was monitored (every day or three times per week) by measuring the length (L) and the width (W) of the tumor using Vernier caliper. Tumor volume (TV) was calculated by using the formula: volume=(L×W^2)/2. […]

BxPC3 = test: Cell viability, pancreatic cancer cell line BxPC3; assay type: cell-based; details: Homo sapiens, BXPC-3; BxPC3, pancreas
Method: as §2, §3

Huh7 and HepG2 cells = test: Colony formation assay; assay type: cell-based, Human
[1] = tested on: liver cancer cell lines (Huh7, Hep3B, HepG2); test: Cell proliferation in liver cancer cell lines; assay type: cell-based, Human
Method: as §3

Huh7 xenograft tumor = assay type: in vivo
Description: All animal experiments were reviewed and approved by the Institutional Animal Care and Use Committee of Kaohsiung Medical University, and performed in accordance with relevant guidelines. Five to six-week-old male NOD-SCID mice were subcutaneously injected with Huh7 cells (1×10^6) in the right flank. Upon detection of palpable tumor, mice were randomly grouped and treated with 300 mpk, 100 mpk or 25 mpk of LKY4606D or KYT5397 and drug vehicle orally every day for 28 days. For K117, doses of 10 mpk and 25 mpk were used. For Sorafenib, dose of 25 mpk was used. Tumor growth was monitored (every day or three times per week) by measuring the length (L) and the width (W) of the tumor using Vernier caliper. Tumor volume (TV) was calculated by using the formula: volume=(L×W^2)/2. All drugs were dissolved in 0.5% carboxymethyl cellulose sodium salt.

PC3 = test: Cell viability, prostate cancer cell line PC3; assay type: cell-based; details: Homo sapiens, PC-3
Method: as §2, §3

p27 mRNA = p27 mRNA expression in Huh7 cells (qRT-PCR); assay type: cell-based, Human; details: after K117 treatment
Method: as §1

MYC mRNA = MYC mRNA expression in Huh7 cells (qRT-PCR); assay type: cell-based, Human
Method: as §1

GNMT mRNA = test: Endogenous GNMT mRNA in Huh7 cells (qRT-PCR); assay type: cell-based, Human
Method: as §1

GNMT protein = test: Endogenous GNMT protein in Huh7 cells (immunoblotting); assay type: cell-based, Human
Method: as §4

[2] = tested on: −1812/+14 GNMT promoter-luciferase reporter cell line H7GPL; test: GNMT induction capacity assay (GNMT promoter-luciferase reporter, H7GPL cells); assay type: cell-based, Human; details: for Relative Luciferase Activity (induction capacity): H7GPL cells
Method: A −1812/+14 GNMT promoter-luciferase reporter cell line H7GPL was constructed. For the primary analysis, H7GPL cells seeded in 96-well plates were treated with individual drugs of 10 μM for 24 hours and then were lysed for the luciferase activity assay using Luciferase Assay System (Promega, Madison, WI, USA). Then, the secondary analysis was performed using the compounds with different doses. The same confirmed hits were used for cytotoxicity by using alamarBlue® reagent (AbD serotec, Oxford, UK). The cytotoxicity was measured according to the manufacturer's recommendation. Top hits were used for further studies.

DU145 = test: Cell viability, prostate cancer cell line DU145; assay type: cell-based; details: Homo sapiens, DU-145
GNMT expression / MYC = details: pathogenesis of liver cancer, known; cited from earlier work

SMILES: C/C(=N\NC(=O)c1cccnc1N)c1ccccn1 [K117, N′-(1-(pyridin-2-yl)ethylidene)-2-carbohydrazide]
- p21 mRNA expression (p21 mRNA): increased
- pIC50 (PANC1): 5.66
- MYC protein expression in xenograft tumors (MYC protein): reduced
- pIC50 (BxPC3): 5.92
- Colony formation (Huh7 and HepG2 cells): reduced the colony formation of Huh7 and HepG2 cells in a dose-dependent manner
- Proliferation of liver cancer cells [1]: inhibited proliferation of all tested liver cancer cells in a dose-dependent manner
- Tumor growth versus control group (Huh7 xenograft tumor; K117 10 mpk and 25 mpk): significant tumor growth reduction
- Tumor growth effect compared with Sorafenib (Huh7 xenograft tumor; K117 10 mpk vs Sorafenib 25 mpk): same effect as Sorafenib 25 mpk
- pIC50 (PC3): 4.82
- p27 mRNA expression (p27 mRNA): increased
- MYC mRNA expression (MYC mRNA): suppressed c-Myc mRNA expression dose-dependently
- Endogenous GNMT expression at mRNA level (GNMT mRNA): induced
- Endogenous GNMT expression at protein level (GNMT protein): induced
- Relative Luciferase Activity (induction capacity) ([2]; 5.0 μM): 6.52 ± 0.12
- Relative Luciferase Activity (induction capacity) ([2]; 10 μM): 10.36 ± 0.35
- Induction of GNMT expression compared with K78 ([2]; SAR study): more effective than K78
- Induction of luciferase activity / GNMT promoter activity ([2]; dose response (FIG. 2B, 4B)): induced GNMT promoter activity in a dose-dependent manner
- pIC50 (DU145): 4.39

SMILES: CNC(=O)c1cc(Oc2ccc(NC(=O)Nc3ccc(Cl)c(C(F)(F)F)c3)cc2)ccn1 [Sorafenib, sorafenib, reference compound]
- Tumor growth versus solvent control (Huh7 xenograft tumor; oral, K78 25, 100, 300 mpk, sorafenib comparison control): most significant difference

SMILES: O=C(OC[C@H]1O[C@@H](OC(=O)c2cc(O)c(O)c(O)c2)[C@H](OC(=O)c2cc(O)c(O)c(O)c2)[C@@H](OC(=O)c2cc(O)c(O)c(O)c2)[C@@H]1OC(=O)c1cc(O)c(O)c(O)c1)c1cc(O)c(O)c(O)c1 [PGG, 1,2,3,4,6-penta-O-galloyl-Beta-D-glucopyranoside]
- GNMT expression / MYC regulation (GNMT expression / MYC): enhanced GNMT expression through MYC downregulation
